Measured values published in paper PMC6084503, “Pyrrolo[3,2-c]pyridine derivatives with potential inhibitory effect against FMS kinase: in vitro biological studies” (Journal of Enzyme Inhibition and Medicinal Chemistry, 2018).
Each block holds one molecule with its values, some of them ahead of it.

Tests used:
[1] = test system: panel of 40 kinases including FMS; test: Kinase HotSpot 40-kinase panel, summary over the other kinases; type: biochemical; settings: 1 µM; kinases other than FMS, FLT3 (D835Y) and c-MET
Procedure: (§1) Reaction Biology Corp. Kinase HotSpot^SM service [http://www.reactionbiology.com] was utilised for screening of the target compounds as per the protocol reported in the literature.
(§2) Compound 1r was tested against a panel of 40 kinases including FMS. […] Its inhibition percentages against FLT3 (D835Y) and c-MET kinases were 42% and 40%, respectively. So its IC50 values against both of them will be in micromolar scale. […] The inhibition percentages exerted by compound 1r against the other 37 tested kinases were less than 28%.

GSK3β = target: T1, GSK3β (Homo sapiens, UniProt P49841); test: Kinase HotSpot 40-kinase panel; type: biochemical; settings: single-dose concentration of 1 μM
T1 construct: purchased Reaction Biology Corp. (Kinase HotSpot)
Procedure: as §1, §2

HIPK2 = target: T2, HIPK2 (Homo sapiens, UniProt Q9H2X6); test: Kinase HotSpot 40-kinase panel; type: biochemical; settings: single-dose concentration of 1 μM
T2 construct: purchased Reaction Biology Corp. (Kinase HotSpot)
Procedure: as §1, §2

IR = target: T3, IR (Homo sapiens, UniProt P06213); test: Kinase HotSpot 40-kinase panel; type: biochemical; settings: single-dose concentration of 1 μM
T3 construct: purchased Reaction Biology Corp. (Kinase HotSpot)
Procedure: as §1, §2

RET = target: T4, RET (Homo sapiens, UniProt P07949); test: Kinase HotSpot 40-kinase panel; type: biochemical; settings: single-dose concentration of 1 μM
T4 construct: purchased Reaction Biology Corp. (Kinase HotSpot)
Procedure: as §1, §2

RSK1 = target: T5, RSK1 (Homo sapiens, UniProt Q15418); test: Kinase HotSpot 40-kinase panel; type: biochemical; settings: single-dose concentration of 1 μM
T5 construct: purchased Reaction Biology Corp. (Kinase HotSpot)
Procedure: as §1, §2

FGFR1 = target: T6, FGFR1 (Homo sapiens, UniProt P11362); test: Kinase HotSpot 40-kinase panel; type: biochemical; settings: single-dose concentration of 1 μM
T6 construct: purchased Reaction Biology Corp. (Kinase HotSpot)
Procedure: as §1, §2

FYN = target: T7, FYN (Homo sapiens, UniProt P06241); test: Kinase HotSpot 40-kinase panel; type: biochemical; settings: single-dose concentration of 1 μM
T7 construct: purchased Reaction Biology Corp. (Kinase HotSpot)
Procedure: as §1, §2

SAPK2a = target: T8, SAPK2a (Homo sapiens, UniProt Q16539); test: Kinase HotSpot 40-kinase panel; type: biochemical; settings: single-dose concentration of 1 μM
T8 construct: purchased Reaction Biology Corp. (Kinase HotSpot)
Procedure: as §1, §2

PAK2 = target: T9, PAK2 (Homo sapiens, UniProt Q13177); test: Kinase HotSpot 40-kinase panel; type: biochemical; settings: single-dose concentration of 1 μM
T9 construct: purchased Reaction Biology Corp. (Kinase HotSpot)
Procedure: as §1, §2

FMS kinase = target: T10, FMS kinase (Homo sapiens, UniProt P07333); test: Kinase HotSpot cell-free enzyme assay, FMS kinase; type: biochemical
T10 construct: purchased Reaction Biology Corp
Procedure: as §1
Compounds 1a–r were tested in a 10-dose testing mode starting with 81 µM, threefold serial dilutions, against FMS kinase in a cell-free enzyme assay. […] This can be due to occupancy of a hydrophobic pocket with that additional benzoyl moiety and/or formation of additional hydrogen bond by the carbonyl oxygen.

[2] = test system: OVCAR-5 ovarian cancer cell line; test: NCI antiproliferative screening, 5-dose; type: cell-based; settings: for IC50: concentration producing 50% inhibition, mean of duplicate experiments; for TGI: concentration producing 100% inhibition
Procedure: (§3) Compounds 1r and KIST101029 were tested at the National Cancer Institute (NCI, Bethesda, MD) following their standard protocol [https://dtp.cancer.gov/discovery_development/nci-60/methodology.htm].
(§4) Due to over-expression of FMS kinase in certain types of tumours such as ovarian, prostate, and breast[5–7] cancers, we decided to test the antiproliferative activity of compound 1r against a panel of six ovarian, two prostate, and five breast cancer cell lines. It was also tested against HS 27 fibroblasts in order to investigate the selectivity indexes. The results were compared with those of KIST101029 as a reference standard.

[3] = test system: OVCAR-4 ovarian cancer cell line; test: NCI antiproliferative screening, 5-dose; type: cell-based; settings: for IC50: concentration producing 50% inhibition, mean of duplicate experiments; for TGI: concentration producing 100% inhibition
Procedure: as §3, §4

[4] = test system: DU-145 prostate cancer cell line; test: NCI antiproliferative screening, 5-dose; type: cell-based; settings: for IC50: concentration producing 50% inhibition, mean of duplicate experiments; for TGI: concentration producing 100% inhibition
Procedure: as §3, §4

[5] = test system: HS 578T breast cancer cell line; test: NCI antiproliferative screening, 5-dose; type: cell-based; settings: for IC50: concentration producing 50% inhibition, mean of duplicate experiments; for TGI: concentration producing 100% inhibition
Procedure: as §3, §4

[6] = test system: T-47D breast cancer cell line; test: NCI antiproliferative screening, 5-dose; type: cell-based; settings: for IC50: concentration producing 50% inhibition, mean of duplicate experiments; for TGI: concentration producing 100% inhibition
Procedure: as §3, §4

[7] = test system: MDA-MB-231/ATCC breast cancer cell line; test: NCI antiproliferative screening, 5-dose; type: cell-based; settings: for IC50: concentration producing 50% inhibition, mean of duplicate experiments; for TGI: concentration producing 100% inhibition
Procedure: as §3, §4

[8] = test system: NCI/ADR-RES ovarian cancer cell line; test: NCI antiproliferative screening, 5-dose; type: cell-based; settings: for IC50: concentration producing 50% inhibition, mean of duplicate experiments; for TGI: concentration producing 100% inhibition
Procedure: as §3, §4

[9] = test system: OVCAR-8 ovarian cancer cell line; test: NCI antiproliferative screening, 5-dose; type: cell-based; settings: for IC50: concentration producing 50% inhibition, mean of duplicate experiments; for TGI: concentration producing 100% inhibition
Procedure: as §3, §4

[10] = test system: MDA-MB-468 breast cancer cell line; test: NCI antiproliferative screening, 5-dose; type: cell-based; settings: for IC50: concentration producing 50% inhibition, mean of duplicate experiments; for TGI: concentration producing 100% inhibition
Procedure: as §3, §4

[11] = test system: PC-3 prostate cancer cell line; test: NCI antiproliferative screening, 5-dose; type: cell-based; settings: for IC50: concentration producing 50% inhibition, mean of duplicate experiments; for TGI: concentration producing 100% inhibition
Procedure: as §3, §4

[12] = test system: OVCAR-3 ovarian cancer cell line; test: NCI antiproliferative screening, 5-dose; type: cell-based; settings: for IC50: concentration producing 50% inhibition, mean of duplicate experiments; for TGI: concentration producing 100% inhibition
Procedure: as §3, §4

[13] = test system: MCF7 breast cancer cell line; test: NCI antiproliferative screening, 5-dose; type: cell-based; settings: for IC50: concentration producing 50% inhibition, mean of duplicate experiments; for TGI: concentration producing 100% inhibition
Procedure: as §3, §4

[14] = test system: IGROV1 ovarian cancer cell line; test: NCI antiproliferative screening, 5-dose; type: cell-based; settings: for IC50: mean of duplicate experiments; for TGI: concentration producing 100% inhibition
Procedure: as §3, §4

[15] = test system: panel of six ovarian, two prostate, and five breast cancer cell lines; test: NCI antiproliferative screening, whole panel; type: cell-based; settings: read-out: IC50 values, range over the cancer cell line panel
Procedure: as §3, §4

T9 sequence (Q13177 whole entry): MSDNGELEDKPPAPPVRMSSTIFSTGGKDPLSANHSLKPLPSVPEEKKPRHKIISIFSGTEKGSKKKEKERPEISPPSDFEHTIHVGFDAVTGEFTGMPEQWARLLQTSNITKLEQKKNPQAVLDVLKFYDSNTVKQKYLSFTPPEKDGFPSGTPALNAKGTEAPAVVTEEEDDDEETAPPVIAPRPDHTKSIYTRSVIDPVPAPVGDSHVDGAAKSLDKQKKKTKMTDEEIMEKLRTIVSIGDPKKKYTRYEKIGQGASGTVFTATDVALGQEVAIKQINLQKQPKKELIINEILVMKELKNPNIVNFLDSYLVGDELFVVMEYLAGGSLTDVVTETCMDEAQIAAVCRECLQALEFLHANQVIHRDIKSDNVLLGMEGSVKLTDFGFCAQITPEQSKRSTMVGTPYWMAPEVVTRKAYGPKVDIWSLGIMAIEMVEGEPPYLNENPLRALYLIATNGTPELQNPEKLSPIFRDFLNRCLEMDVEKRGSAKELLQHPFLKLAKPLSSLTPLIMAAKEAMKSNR
T7 sequence (P06241 whole entry): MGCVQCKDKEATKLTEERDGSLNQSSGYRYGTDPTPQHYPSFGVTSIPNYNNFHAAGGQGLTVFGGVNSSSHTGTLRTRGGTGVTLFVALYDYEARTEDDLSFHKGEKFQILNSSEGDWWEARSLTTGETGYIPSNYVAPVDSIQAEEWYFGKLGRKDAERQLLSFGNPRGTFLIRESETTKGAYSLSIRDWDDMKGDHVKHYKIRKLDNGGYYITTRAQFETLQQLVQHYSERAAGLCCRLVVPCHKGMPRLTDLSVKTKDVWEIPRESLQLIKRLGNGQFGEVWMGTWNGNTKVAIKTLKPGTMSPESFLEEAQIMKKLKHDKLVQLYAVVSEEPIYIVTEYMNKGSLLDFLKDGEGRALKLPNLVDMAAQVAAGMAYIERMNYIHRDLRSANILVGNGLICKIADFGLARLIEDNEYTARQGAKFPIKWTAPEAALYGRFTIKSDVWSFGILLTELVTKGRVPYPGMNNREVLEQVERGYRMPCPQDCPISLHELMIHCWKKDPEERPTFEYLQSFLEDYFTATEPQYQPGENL
T5 sequence (Q15418 whole entry): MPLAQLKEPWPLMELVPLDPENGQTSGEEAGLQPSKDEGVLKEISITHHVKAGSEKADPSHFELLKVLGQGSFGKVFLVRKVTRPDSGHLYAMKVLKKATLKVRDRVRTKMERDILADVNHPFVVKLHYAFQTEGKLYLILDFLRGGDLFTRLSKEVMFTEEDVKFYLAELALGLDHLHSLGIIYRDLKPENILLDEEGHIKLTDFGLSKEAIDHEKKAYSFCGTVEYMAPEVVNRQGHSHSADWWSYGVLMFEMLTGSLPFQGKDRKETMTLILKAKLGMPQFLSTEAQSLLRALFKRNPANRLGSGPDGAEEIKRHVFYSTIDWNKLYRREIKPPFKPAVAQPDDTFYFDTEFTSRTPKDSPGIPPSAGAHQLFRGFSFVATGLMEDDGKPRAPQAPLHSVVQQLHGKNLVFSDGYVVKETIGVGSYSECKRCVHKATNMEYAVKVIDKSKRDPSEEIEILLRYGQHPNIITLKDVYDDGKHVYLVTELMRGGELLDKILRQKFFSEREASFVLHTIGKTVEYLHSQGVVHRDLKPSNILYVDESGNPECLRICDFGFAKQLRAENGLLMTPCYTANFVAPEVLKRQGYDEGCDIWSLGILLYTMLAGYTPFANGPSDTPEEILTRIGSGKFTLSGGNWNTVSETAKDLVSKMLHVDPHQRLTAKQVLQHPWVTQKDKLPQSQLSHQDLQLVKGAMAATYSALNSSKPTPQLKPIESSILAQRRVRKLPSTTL
T4 sequence (P07949 29-1114): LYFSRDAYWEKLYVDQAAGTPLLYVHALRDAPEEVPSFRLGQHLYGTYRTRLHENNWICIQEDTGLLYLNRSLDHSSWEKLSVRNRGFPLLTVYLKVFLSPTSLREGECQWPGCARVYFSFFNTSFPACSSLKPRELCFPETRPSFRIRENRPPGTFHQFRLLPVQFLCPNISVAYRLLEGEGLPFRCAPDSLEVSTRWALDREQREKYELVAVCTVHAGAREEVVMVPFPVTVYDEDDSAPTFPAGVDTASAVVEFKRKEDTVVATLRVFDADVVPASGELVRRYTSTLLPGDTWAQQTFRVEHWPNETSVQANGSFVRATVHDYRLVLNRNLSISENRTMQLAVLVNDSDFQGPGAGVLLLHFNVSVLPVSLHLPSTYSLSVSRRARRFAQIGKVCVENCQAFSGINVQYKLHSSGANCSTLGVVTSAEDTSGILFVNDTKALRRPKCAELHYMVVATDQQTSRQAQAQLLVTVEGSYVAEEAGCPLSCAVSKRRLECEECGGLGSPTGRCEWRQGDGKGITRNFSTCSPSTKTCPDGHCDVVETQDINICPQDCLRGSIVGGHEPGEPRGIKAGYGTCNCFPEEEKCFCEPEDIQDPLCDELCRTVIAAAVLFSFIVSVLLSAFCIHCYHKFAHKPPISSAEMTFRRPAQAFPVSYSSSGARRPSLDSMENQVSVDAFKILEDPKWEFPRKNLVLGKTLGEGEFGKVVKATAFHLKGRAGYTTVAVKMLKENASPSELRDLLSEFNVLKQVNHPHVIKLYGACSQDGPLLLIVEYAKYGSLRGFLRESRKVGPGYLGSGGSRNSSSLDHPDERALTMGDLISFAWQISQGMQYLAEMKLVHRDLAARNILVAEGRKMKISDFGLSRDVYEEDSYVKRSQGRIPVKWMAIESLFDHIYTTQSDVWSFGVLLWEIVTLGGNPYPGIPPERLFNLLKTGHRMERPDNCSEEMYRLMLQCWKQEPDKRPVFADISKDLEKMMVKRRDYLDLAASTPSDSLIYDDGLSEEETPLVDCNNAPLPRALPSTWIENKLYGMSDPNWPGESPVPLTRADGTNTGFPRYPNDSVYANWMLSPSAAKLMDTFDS
T8 sequence (Q16539 whole entry): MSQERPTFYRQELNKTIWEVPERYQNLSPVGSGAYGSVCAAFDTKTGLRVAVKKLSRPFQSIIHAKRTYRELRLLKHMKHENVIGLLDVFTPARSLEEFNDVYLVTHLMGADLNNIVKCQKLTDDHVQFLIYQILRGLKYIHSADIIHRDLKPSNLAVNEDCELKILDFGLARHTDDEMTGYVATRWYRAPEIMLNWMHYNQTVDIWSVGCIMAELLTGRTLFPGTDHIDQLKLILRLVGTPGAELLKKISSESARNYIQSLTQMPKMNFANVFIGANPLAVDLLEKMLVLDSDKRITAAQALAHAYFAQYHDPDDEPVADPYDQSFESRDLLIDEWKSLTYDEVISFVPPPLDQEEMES
T10 sequence (P07333 20-972): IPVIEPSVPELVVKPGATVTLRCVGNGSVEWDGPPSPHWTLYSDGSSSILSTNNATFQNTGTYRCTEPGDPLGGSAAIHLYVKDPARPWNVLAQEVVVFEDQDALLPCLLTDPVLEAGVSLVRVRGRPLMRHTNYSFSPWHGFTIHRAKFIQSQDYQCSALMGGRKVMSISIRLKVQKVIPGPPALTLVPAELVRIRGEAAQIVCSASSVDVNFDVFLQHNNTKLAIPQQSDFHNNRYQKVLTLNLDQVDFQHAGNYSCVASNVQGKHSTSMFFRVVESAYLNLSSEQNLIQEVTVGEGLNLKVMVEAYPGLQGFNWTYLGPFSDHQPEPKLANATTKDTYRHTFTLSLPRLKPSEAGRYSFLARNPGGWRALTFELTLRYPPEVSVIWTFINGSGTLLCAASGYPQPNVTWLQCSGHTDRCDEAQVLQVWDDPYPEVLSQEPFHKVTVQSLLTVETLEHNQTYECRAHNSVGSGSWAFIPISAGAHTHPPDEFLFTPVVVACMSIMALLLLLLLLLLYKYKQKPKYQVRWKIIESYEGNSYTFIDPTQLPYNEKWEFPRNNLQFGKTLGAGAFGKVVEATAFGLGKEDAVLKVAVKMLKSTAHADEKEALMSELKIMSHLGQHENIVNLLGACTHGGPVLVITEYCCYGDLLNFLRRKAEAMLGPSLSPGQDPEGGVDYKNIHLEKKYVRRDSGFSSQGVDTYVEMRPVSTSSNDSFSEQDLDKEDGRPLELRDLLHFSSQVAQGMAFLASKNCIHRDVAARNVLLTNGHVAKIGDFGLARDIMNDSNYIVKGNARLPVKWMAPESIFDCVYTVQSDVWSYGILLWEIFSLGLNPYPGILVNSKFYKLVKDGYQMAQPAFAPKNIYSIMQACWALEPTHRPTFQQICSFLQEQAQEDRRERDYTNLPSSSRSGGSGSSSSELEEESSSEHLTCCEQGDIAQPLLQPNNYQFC
T1 sequence (P49841 whole entry): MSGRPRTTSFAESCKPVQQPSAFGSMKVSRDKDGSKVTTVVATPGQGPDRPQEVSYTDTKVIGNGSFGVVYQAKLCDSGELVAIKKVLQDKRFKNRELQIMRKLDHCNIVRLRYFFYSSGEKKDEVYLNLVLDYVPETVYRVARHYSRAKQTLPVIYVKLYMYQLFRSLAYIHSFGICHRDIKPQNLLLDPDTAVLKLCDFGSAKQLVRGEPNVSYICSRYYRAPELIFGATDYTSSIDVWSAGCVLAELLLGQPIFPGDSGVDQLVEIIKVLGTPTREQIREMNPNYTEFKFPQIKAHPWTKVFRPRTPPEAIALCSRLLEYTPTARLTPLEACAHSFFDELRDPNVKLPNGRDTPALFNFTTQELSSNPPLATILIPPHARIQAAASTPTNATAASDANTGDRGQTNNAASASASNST

Inhibition percentages against the other 37 tested kinases [1]: less than 28%
% Inhibition (GSK3β): −3%
% Inhibition (HIPK2): 6%
% Inhibition (IR): 5%
% Inhibition (RET): 27%
% Inhibition (RSK1): −4%
% Inhibition (FGFR1): −3%
% Inhibition (FYN): 14%
% Inhibition (SAPK2a): −1%
% Inhibition (PAK2): −9%
IC50 (FMS kinase; 10-dose duplicate assay, mean ± SEM, starting with 81 µM, threefold serial dilution, read-out: IC50 against FMS kinase): 30 ± 20 nM
Potency against FMS kinase relative to KIST101029 (FMS kinase; ratio of IC50 values, more potent than lead compound KIST101029): 3.2 times
Structure (SMILES): Nc1nccc2c1ccn2-c1cccc(NC(=O)c2ccc(N3CCOCC3)c(C(F)(F)F)c2)c1 [Compound 1r]
IC50 [2]: 1380 nM
TGI [2]: >50000 nM
IC50 [3]: 1080 nM
TGI [3]: 26000 nM
IC50 [4]: 1300 nM
TGI [4]: 4670 nM
IC50 [5]: 340 nM
TGI [5]: 2430 nM
IC50 [6]: 1780 nM
TGI [6]: 27500 nM
IC50 [7]: 840 nM
TGI [7]: 2320 nM
IC50 [8]: 340 nM
TGI [8]: >50000 nM
IC50 [9]: 1260 nM
TGI [9]: 9960 nM
IC50 [10]: 300 nM
TGI [10]: 3140 nM
IC50 [11]: 380 nM
TGI [11]: 10400 nM
IC50 [12]: 240 nM
TGI [12]: 1470 nM
IC50 [13]: 150 nM
TGI [13]: 6860 nM
IC50 ([14]; concentration producing 50% inhibition): 700 nM
TGI [14]: 43300 nM
IC50 [15]: 150 to 1780 nM

inhibition at 1 µM (GSK3β): 4%
inhibition at 1 µM (HIPK2): 9%
inhibition at 1 µM (IR): 2%
inhibition at 1 µM (RET): 57%
inhibition at 1 µM (RSK1): 8%
inhibition at 1 µM (FGFR1): 6%
inhibition at 1 µM (FYN): 44%
inhibition at 1 µM (SAPK2a): 25%
inhibition at 1 µM (PAK2): 2%
Structure (SMILES): O=C(Nc1cccc(-n2ccc3c(NC(=O)c4ccccc4)nccc32)c1)c1ccc(N2CCOCC2)c(C(F)(F)F)c1 [KIST101029, reference compound]
IC50 ([2]; Homo sapiens): 200 nM
TGI [2]: >100000 nM
IC50 ([3]; Homo sapiens): 240 nM
TGI [3]: 50000 nM
IC50 ([4]; Homo sapiens): 40 nM
TGI [4]: 100 nM
IC50 ([5]; Homo sapiens): 990 nM
TGI [5]: 97200 nM
IC50 ([6]; Homo sapiens, T47D): 80 nM
TGI [6]: 7460 nM
IC50 ([7]; Homo sapiens): 160 nM
TGI [7]: 3420 nM
IC50 ([8]; Homo sapiens): 40 nM
TGI [8]: 26400 nM
IC50 ([9]; Homo sapiens): 60 nM
TGI [9]: >100000 nM
IC50 ([10]; Homo sapiens): 30 nM
TGI [10]: 100 nM
IC50 [11]: 60 nM
TGI [11]: >100000 nM
IC50 ([12]; Homo sapiens): 20 nM
TGI [12]: 50 nM
IC50 ([13]; Homo sapiens): 40 nM
TGI [13]: 54000 nM
IC50 ([14]; Homo sapiens, IGROV-1, concentration producing 50% inhibition): 60 nM
TGI [14]: 56900 nM
